Data as given in patent US9884839B2, “Inhibitors of 17Beta-hydroxysteroid dehydrogenases type 1 and type 2” (ElexoPharm GmbH, priority 2014, dated 2018).
Read-outs that look alike come from different tables or passages of the source.

Legend:
human 17β-HSD1 = molecular target: T1, human 17β-HSD1 (Homo sapiens, UniProt P14061); assay: Inhibition of human 17β-HSD1 (conversion of [3H]-E1 to E2, HPLC radioflow detection); assay type: biochemical; details: for inhibition at 0.01 µM: read-out: % inhibition h17β-HSD1 @ 10 nM; for IC50: read-out: IC50 [nM] h17β-HSD1
T1 construct: For the partial purification of 17β-HSD1, the cytosolic fraction was precipitated with ammonium sulfate; from tissue; host or cells: human placenta, cytosolic fraction, ammonium sulfate precipitate
T1 sequence (P14061 1-328): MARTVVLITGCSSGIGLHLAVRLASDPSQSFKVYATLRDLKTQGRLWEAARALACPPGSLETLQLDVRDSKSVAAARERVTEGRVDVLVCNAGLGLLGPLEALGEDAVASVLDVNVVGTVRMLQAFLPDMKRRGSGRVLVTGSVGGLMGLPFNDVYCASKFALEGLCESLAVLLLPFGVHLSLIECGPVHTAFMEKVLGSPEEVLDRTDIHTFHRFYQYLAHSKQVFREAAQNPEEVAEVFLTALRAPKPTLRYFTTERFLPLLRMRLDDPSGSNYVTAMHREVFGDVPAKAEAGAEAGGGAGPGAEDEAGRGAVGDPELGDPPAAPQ

mouse 17β-HSD2 = molecular target: T2, mouse 17β-HSD2 (Mus musculus, UniProt P51658); assay: Inhibition of mouse 17β-HSD2 (liver microsomal fraction); assay type: biochemical; details: for inhibition at 0.05 µM: read-out: % inhibition m17β-HSD2 @ 50 nM; for IC50: read-out: IC50 m17β-HSD2
T2 construct: The pellet fractions containing the microsomal 17β-HSD2 were used for the determination of E1 formation; from tissue; host or cells: mouse liver, microsomal fraction
T2 sequence (P51658 1-381): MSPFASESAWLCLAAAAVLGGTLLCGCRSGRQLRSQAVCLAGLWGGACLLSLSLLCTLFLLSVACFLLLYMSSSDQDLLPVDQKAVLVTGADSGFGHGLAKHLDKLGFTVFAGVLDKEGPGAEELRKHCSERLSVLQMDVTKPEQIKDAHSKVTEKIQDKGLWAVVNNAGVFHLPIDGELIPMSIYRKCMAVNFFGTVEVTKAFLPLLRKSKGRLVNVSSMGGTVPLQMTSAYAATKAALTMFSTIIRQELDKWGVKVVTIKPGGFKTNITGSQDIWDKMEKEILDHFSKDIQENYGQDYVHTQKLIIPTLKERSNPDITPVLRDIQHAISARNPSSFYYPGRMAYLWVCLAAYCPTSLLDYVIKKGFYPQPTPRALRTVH

[1] = human liver S9, 1 mg/mL; unit not given
human 17β-HSD2 = molecular target: T3, human 17β-HSD2 (Homo sapiens, UniProt P37059); assay: Inhibition of human 17β-HSD2 (conversion of [3H]-E2 to E1); assay type: biochemical; details: for inhibition at 0.01 µM: read-out: % inhibition h17β-HSD2 @ 10 nM; for IC50: read-out: IC50 [nM] h17β-HSD2
T3 construct: 17β-HSD2 was obtained from the microsomal fraction; from tissue; host or cells: human placenta, microsomal fraction
T3 sequence (P37059 1-387): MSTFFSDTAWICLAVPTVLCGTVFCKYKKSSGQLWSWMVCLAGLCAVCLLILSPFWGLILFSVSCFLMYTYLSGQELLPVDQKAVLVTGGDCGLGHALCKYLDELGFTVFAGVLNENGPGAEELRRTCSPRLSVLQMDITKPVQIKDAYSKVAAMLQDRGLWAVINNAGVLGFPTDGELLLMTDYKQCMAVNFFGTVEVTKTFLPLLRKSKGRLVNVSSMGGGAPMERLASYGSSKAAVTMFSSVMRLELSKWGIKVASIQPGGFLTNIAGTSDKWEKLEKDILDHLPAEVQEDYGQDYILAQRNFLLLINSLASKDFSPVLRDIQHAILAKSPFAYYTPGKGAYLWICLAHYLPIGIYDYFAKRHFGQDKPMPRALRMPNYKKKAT

in vitro = details: human, pooled human liver S9 fraction
mouse 17β-HSD1 = molecular target: T4, mouse 17β-HSD1 (Mus musculus, UniProt P51656); assay: Inhibition of mouse 17β-HSD1 (recombinant, HEK293 lysate); assay type: biochemical; details: for IC50: read-out: IC50 m17β-HSD1
T4 construct: made in house; host or cells: HEK293 cells, transient transfection; 1,000 g supernatant of the cell lysate
T4 sequence (P51656 1-344): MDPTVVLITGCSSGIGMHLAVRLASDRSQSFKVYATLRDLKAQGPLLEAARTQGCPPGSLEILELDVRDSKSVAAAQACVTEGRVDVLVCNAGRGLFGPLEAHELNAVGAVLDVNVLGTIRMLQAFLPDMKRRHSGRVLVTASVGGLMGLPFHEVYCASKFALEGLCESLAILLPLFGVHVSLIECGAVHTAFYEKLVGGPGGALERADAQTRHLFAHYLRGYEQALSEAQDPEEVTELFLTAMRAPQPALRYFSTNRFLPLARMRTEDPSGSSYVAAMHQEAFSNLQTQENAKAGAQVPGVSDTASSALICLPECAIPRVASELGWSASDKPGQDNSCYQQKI

rat 17β-HSD1 = molecular target: T5, rat 17β-HSD1 (Rattus norvegicus, UniProt P51657); assay: Inhibition of rat 17β-HSD1 (recombinant, HEK293 lysate); assay type: biochemical; details: Cmpd conc. 250 nM; read-out: % Inhibition r17β-HSD1
T5 construct: made in house; host or cells: HEK293 cells, transient transfection; 1,000 g supernatant of the cell lysate
T5 sequence (P51657 1-344): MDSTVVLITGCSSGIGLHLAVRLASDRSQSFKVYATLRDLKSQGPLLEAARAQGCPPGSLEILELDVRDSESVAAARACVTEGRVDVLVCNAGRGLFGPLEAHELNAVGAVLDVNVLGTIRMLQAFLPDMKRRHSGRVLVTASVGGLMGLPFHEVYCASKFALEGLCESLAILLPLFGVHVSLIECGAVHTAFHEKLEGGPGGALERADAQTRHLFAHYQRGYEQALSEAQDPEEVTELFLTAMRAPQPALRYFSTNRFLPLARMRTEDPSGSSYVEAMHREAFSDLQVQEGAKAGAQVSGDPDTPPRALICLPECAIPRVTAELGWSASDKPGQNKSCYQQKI

[2] = human placental cytosolic enzyme, E1 500 nM, NADH, Tables 1, 4-11
[3] = read-out: % inhibition m17β-HSD1 @ 1 μM
[4] = read-out: Inhibition @ 1 μM m17β-HSD1
[5] = read-out: Inhibition @ 1 μM m17β-HSD2

Row | Compound | CLint [1] | half-life at 1 µM (in vitro) | IC50 (human 17β-HSD1; [2]) | IC50 (human 17β-HSD2) | inhibition at 1 µM (mouse 17β-HSD1; [4]) | other results
1 | CS(=O)(=O)Nc1cccc(-c2ccc(C(=O)c3cc(F)c(F)c(O)c3F)s2)c1 [Compound 63, N-(3-(5-(2,4,5-trifluoro-3-hydroxybenzoyl)thiophen-2-yl)phenyl)methanesulfonamide] | 27.7 | 25 min | – | – | – | inhibition at 0.01 µM (human 17β-HSD1): 53%; inhibition at 0.05 µM (mouse 17β-HSD2): 38%; inhibition at 0.01 µM (human 17β-HSD2): 77%
2 | COc1c(Cl)cc(-c2ccc(C(=O)c3cc(F)c(F)c(O)c3F)s2)cc1Cl [Compound 45, (5-(3,5-Dichloro-4-methoxyphenyl)thiophen-2-yl)(2,4,5-trifluoro-3-hydroxyphenyl)methanone] | – | 15 min | 0.6 nM | 2.6 nM | – | IC50 (mouse 17β-HSD2): 89 nM; IC50 (mouse 17β-HSD1; recombinant mouse enzyme, E1 10 nM, NADPH): 1.73 µM
3 | O=C(c1ccc(-c2cccc3[nH]ccc23)s1)c1cc(F)c(F)c(O)c1F [Compound 62, (5-(1H-Indol-4-yl)thiophen-2-yl)(2,4,5-trifluoro-3-hydroxyphenyl)methanone] | 14.2 | 48.9 min | – | – | – | inhibition at 0.01 µM (human 17β-HSD1): 93%; inhibition at 0.05 µM (mouse 17β-HSD2): 46%; inhibition at 0.01 µM (human 17β-HSD2): 100%
4 | Cc1cc(-c2ccc(C(=O)c3cccc(O)c3Cl)s2)cc(C)c1O [Compound 79, (2-Chloro-3-hydroxyphenyl)(5-(4-hydroxy-3,5-dimethylphenyl)thiophen-2-yl)methanone] | 31.6 | 22 min | – | – | – | inhibition at 0.01 µM (human 17β-HSD1): 31%; inhibition at 0.05 µM (mouse 17β-HSD2): 70%; inhibition at 0.01 µM (human 17β-HSD2): 64%
5 | Nc1cccc(-c2ccc(C(=O)c3c(F)ccc(O)c3F)s2)c1 [Compound 1, [5-(3-Aminophenyl)thiophen-2-yl](2,6-difluoro-3-hydroxyphenyl)methanone] | – | – | – | – | 30% | inhibition at 1 µM (mouse 17β-HSD1; [3]): 30%; inhibition at […] (rat 17β-HSD1): 51%
6 | Cn1cnc(S(=O)(=O)Nc2cccc(-c3ccc(C(=O)c4cc(F)c(F)c(O)c4F)s3)c2)c1 [Compound 48, 1-Methyl-N-(3-(5-(2,4,5-trifluoro-3-hydroxybenzoyl)thiophen-2-yl)phenyl)-1H-imidazole-4-sulfonamide] | 27.9 | 24.9 min | 21 nM | – | 12.1% | IC50 (mouse 17β-HSD2): 155 nM
7 | O=C(c1ccc(-c2cccc(CO)c2)s1)c1cc(F)c(F)c(O)c1F [Compound 47, (5-(3-(Hydroxymethyl)phenyl)thiophen-2-yl)(2,4,5-trifluoro-3-hydroxyphenyl)methanone] | – | – | 5.9 nM | 4.4 nM | 13.8% | IC50 (mouse 17β-HSD2): 260 nM
8 | O=C(c1ccc(-c2cncc(F)c2)s1)c1cc(F)c(F)c(O)c1F [Compound 39, [5-(5-Fluoro-pyridin-3-yl)-thiophen-2-yl]-(2,4,5-trifluoro-3-hydroxy-phenyl)-methanone] | – | – | 59 nM | 18 nM | 9% | inhibition at 1 µM (mouse 17β-HSD2; [5]): 24%
9 | Cc1cc(-c2ccc(C(=O)c3cccc(O)c3C)s2)cc(C)c1O [G, reference compound] | – | – | 899 nM | 239 nM | – | IC50 (mouse 17β-HSD2): 546 nM; IC50 (mouse 17β-HSD1; Table 7, unit μM): 35.5 µM
10 | NC(=O)c1cccc(-c2ccc(C(=O)c3cc(F)c(F)c(O)c3F)s2)c1 [Compound 44, 3-(5-(2,4,5-Trifluoro-3-hydroxybenzoyl)thiophen-2-yl)benzamide] | – | – | 22.4 nM | 6.8 nM | – | inhibition at 0.1 µM (mouse 17β-HSD2; read-out: % inhibition m17β-HSD2 @ 100 nM): 19%; inhibition at 0.1 µM (mouse 17β-HSD1; read-out: % inhibition m17β-HSD1 @ 100 nM, compound 100 nM): 10%
11 | O=C(c1ccc(-c2ccc(O)cc2)s1)c1cc(F)c(F)c(O)c1F [Compound 68, (5-(4-Hydroxyphenyl)thiophen-2-yl)(2,4,5-trifluoro-3-hydroxyphenyl)methanone] | 25.3 | 27.4 min | – | – | – | inhibition at 0.01 µM (human 17β-HSD1): 66%; inhibition at 0.05 µM (mouse 17β-HSD2): 42%; inhibition at 0.01 µM (human 17β-HSD2): 96%
12 | COc1c(Cl)cc(-c2ccc(C(=O)c3c(F)ccc(O)c3F)s2)cc1CN1CCN(C(C)=O)CC1 [Compound 28, 1-(4-{3-Chloro-5-[5-(2,6-difluoro-3-hydroxy-benzoyl)-thiophen-2-yl]-2-methoxy-benzyl}-piperazin-1-yl)-ethanone] | – | – | – | 21 nM | 37% | IC50 (human 17β-HSD1): 1.4 nM; inhibition at 1 µM (mouse 17β-HSD2; [5]): 45%
13 | O=C(c1ccc(-c2ccc(O)c(F)c2)s1)c1cc(F)c(F)c(O)c1F [Compound 42, (5-(3-Fluoro-4-hydroxyphenyl)thiophen-2-yl)(2,4,5-trifluoro-3-hydroxyphenyl)methanone] | – | – | 2.5 nM | 3 nM | 46% | inhibition at 1 µM (mouse 17β-HSD2; [5]): 84%
14 | Cc1c(O)cccc1C(=O)c1ccc(-c2ccc(F)cc2F)s1 [B, reference compound] | – | – | 3430 nM | 300 nM | – | inhibition at 1 µM (mouse 17β-HSD2; read-out: % inhibition m17β-HSD2 @ 1 μM): 18%; inhibition at 1 µM (mouse 17β-HSD1; [3]): 5%
15 | COc1c(Cl)cc(-c2ccc(C(=O)c3c(F)ccc(O)c3F)s2)cc1Cn1ccnn1 [Compound 31, [5-(3-Chloro-4-methoxy-5-[1,2,3]triazol-1-ylmethyl-phenyl)-thiophen-2-yl]-(2,6-difluoro-3-hydroxy-phenyl)-methanone] | – | – | 2.1 nM | 9 nM | 32% | inhibition at 1 µM (mouse 17β-HSD2; [5]): 84%; inhibition at […] (rat 17β-HSD1): 39%
16 | Cc1c(N)cccc1-c1ccc(C(=O)c2cc(F)c(F)c(O)c2F)s1 [Compound 58, (5-(3-Amino-2-methylphenyl)thiophen-2-yl)(2,4,5-trifluoro-3-hydroxyphenyl)methanone] | 33.3 | 20.8 min | – | – | – | inhibition at 0.01 µM (human 17β-HSD1): 1.1%; inhibition at 0.05 µM (mouse 17β-HSD2): 40%; inhibition at 0.01 µM (human 17β-HSD2): 61%
17 | O=C(c1ccc(-c2cccc(Cl)c2O)s1)c1c(F)ccc(O)c1F [Compound 22, [5-(3-Chloro-2-hydroxy-phenyl)-thiophen-2-yl]-(2,6-difluoro-3-hydroxy-phenyl)-methanone] | – | – | – | 29 nM | 46% | IC50 (human 17β-HSD1): 27 nM; inhibition at 1 µM (mouse 17β-HSD2; [5]): 82%
